Reference: publication PMC10667655 (Environmental Microbiology Reports, 2023)

How the values were obtained:
Format in all cases: cell-based
[1] = system: T1, isoprene monooxygenase (IsoMO) of Rhodococcus sp. AD45; assay: headspace substrate depletion, whole cells, non-linear regression; settings: whole isoprene-grown cells; 50 mM phosphate pH 7.0, 30°C; O2 co-substrate; read-out: K m(app)
T1 construct: gene isoA; native enzyme in whole cells of isoprene-grown bacteria; four-component soluble diiron monooxygenase, a2b2g2 oxygenase; with Isoprene monooxygenase oxygenase component subunit gamma; Isoprene monooxygenase Rieske-type ferredoxin component; Isoprene monooxygenase oxygenase component subunit beta
Description: headspace substrate depletion, whole cells, non-linear regression on isoprene monooxygenase (IsoMO) of Rhodococcus sp. AD45

[2] = system: T2, isoprene monooxygenase (IsoMO) of Variovorax sp. WS11; assay: headspace isoprene depletion by gas chromatography, whole cells; settings: whole fermentor-grown cells; O2 co-substrate; read-out: K m(app)
T2 construct: gene isoA; native enzyme in whole fermentor-grown cells; iso genes on a megaplasmid; with Isoprene monooxygenase oxygenase component subunit gamma; Isoprene monooxygenase Rieske-type ferredoxin component; Isoprene monooxygenase oxygenase component subunit beta
Description: headspace isoprene depletion by gas chromatography, whole cells on isoprene monooxygenase (IsoMO) of Variovorax sp. WS11

[3] = system: T1, isoprene monooxygenase (IsoMO) of Rhodococcus sp. AD45; assay: inhibition of isoprene uptake, headspace gas chromatography; settings: whole cells; about 5 μM isoprene in liquid; 50 mM phosphate pH 7.0, 30°C; alkyne in DMSO

Compound | Km [1] [µM] | Km [2] [µM] | % inhibition at 50 μM [3] [%]
C=CC(=C)C [isoprene, 2‐methyl‐1,3‐butadiene] | 4 ± 1.3 | 10.5 ± 3.9 | 
C=CC [propylene] | 2 ± 0.8 |  | 
C#CCCCCCC [1‐octyne] |  |  | 74
